Laboratory results taken from patent US20200138804A1, “METHODS FOR TREATING CANCER” (X4 Pharmaceuticals, Inc., priority 2017, published 2020).
Entries after “also recorded” stand apart in the source; their conditions may differ. Read-outs that look alike come from different tables or passages of the source. One block for each compound: values may come before it.

How the values were obtained:
[1] = subcutaneous injection; cited from earlier work
[2] = system: murine models of melanoma, renal cell carcinoma, and ovarian cancer; conditions: including decreased metastasis and increased overall survival; cited from earlier work
[3] = Phase 1 and 2a trials, oral; cited from earlier work
in vivo = assay: in vivo
Procedure: In certain embodiments, the dosage composition may be provided twice a day in divided dosage, approximately 12 hours apart. In other embodiments, the dosage composition may be provided once daily. […] Dosage for oral administration may be from about 100 mg to about 1200 mg once or twice per day.

[4] = Solubility of X4P-001 as a function of pH; assay type: physicochemical
[5] = system: tumor infiltrating lymphocytes and MDSC in MC38 tumors; assay: Flow cytometry of Day 8 tumor samples, MC38 model (Groups 5-8); assay type: in vivo, mouse
From the text: On Day 8, tumor samples from Groups 5-8 are obtained and divided into three parts. The first part is process to single cells by flow cytometry; second part is preserved by snap freeze; and the third part is preserved as formalin-fixed, paraffin-embedded (FFPE) blocks for IHC analysis of biomarkers.
Samples subjected to flow cytometry are sorted into the following cell types:

[6] = system: intra-tumoral CD8+ activated T-cells and FoxP3+ Tregs; assay: Immunohistochemical analysis of intra-tumor T-cell infiltrates in a melanoma patient before and after X4P-001; assay type: in vivo, human
Procedure: Intra-tumoral tissue samples were obtained from a patient with melanoma prior to treatment (Day 1), and after three (3) weeks of treatment with CXCR4 inhibitor […]-001 (200 mg BID, oral) (Week 4). Samples were stained for CD8+, indicative of activated T-cells, and FoxP3+, indicative of immunosuppressive regulator T-cells (Tregs). The tables below indicate the total counts and density per square millimeter (mm^2) of CD8+ activated T-cells and FoxP3+ Tregs, as well as the ratio of CD8+ activated T-cells:FoxP3+ Tregs per mm^2 at day 1 and after 3 weeks of treatment.

[7] = system: advanced clear-cell renal cell carcinoma; conditions: nivolumab 3 mg/kg IV every two weeks or everolimus 10 mg orally daily; P<0.001; cited from earlier work

Compound: c1cc(CN2CCCNCCNCCCNCC2)ccc1CN1CCCNCCNCCCNCC1 [Plerixafor, reference compound]
half-life [1]: very short half-life
anti-tumor activity [2]: significant anti-tumor activity

terminal half-life (in vivo): approximately 14.5 hrs
half-life (in vivo; terminal half-life): 12 to 24 h
solubility ([4]; aqueous buffer, pH range 3.0 to 8.0 (freely soluble)): > 100 mg/mL
Solubility in water ([4]; water): only slightly soluble
Compound: NCCCCN(Cc1nc2ccccc2[nH]1)[C@H]1CCCc2cccnc21 [X4P-001]
pharmacodynamic activity: changes in circulating white blood cells (WBCs) [3]: dose- and concentration-related changes in circulating white blood cells
volume of distribution (VL) [3]: high volume of distribution
Treg, Percent of CD45^+ Population (Mean ± SEM) ([5]; control 0.5 ± 0.08): 0.49 ± 0.14%
CD4^+, Percent of CD45^+ Population (Mean ± SEM) ([5]; control 1.21 ± 0.29): 1.3 ± 0.51%
CD8^+, Percent of CD45^+ Population (Mean ± SEM) ([5]; control 3.91 ± 0.69): 6.11 ± 0.66%
CD8^+/Treg ([5]; control 7.82): 12.47
MDSC, Percent of CD45^+ Population (Mean ± SEM) ([5]; control 28.97 ± 3.6): 16.2 ± 0.67%
effect on CD8^+ T cells ([5]; versus control): increasing CD8^+ T cells
effect on MDSCs ([5]; versus control): significant effect on reducing MDSCs
anti-tumor activity [2]: significant anti-tumor activity
Total FoxP3+/mm^2 ([6]; Week 4, after 3 weeks of 200 mg BID oral, Day 1 before treatment 24.5868158): 25.2 /mm^2
Total CD8+/mm^2 ([6]; Week 4, after 3 weeks of 200 mg BID oral, Day 1 before treatment 56.87565442): 121.4 /mm^2
Total FoxP3+ ([6]; Week 4, after 3 weeks of 200 mg BID oral, Day 1 before treatment 313): 337
Total CD8+ ([6]; Week 4, after 3 weeks of 200 mg BID oral, Day 1 before treatment 720): 1685
intra-tumoral CD8+ T-cell counts ([6]; Week 4 versus Day 1, 200 mg BID oral, FIG. 3): marked increases in CD8+ T-cells; also recorded: marked increase

Compound: CO[C@H]1C[C@@H]2CC[C@@H](C)[C@@](O)(O2)C(=O)C(=O)N2CCCC[C@H]2C(=O)O[C@H]([C@H](C)C[C@@H]2CC[C@@H](OCCO)[C@H](OC)C2)CC(=O)[C@H](C)/C=C(\C)[C@@H](O)[C@@H](OC)C(=O)[C@H](C)C[C@H](C)/C=C/C=C/C=C/1C [everolimus]
objective response rate [7]: 5%

Compound: nivolumab: fully human IgG4 monoclonal antibody binding the PD-1 receptor
objective response rate [7]: 25%
